Assay results taken from patent publication US20260374792A1, “PHENYL-FREE BISCATIONIC QUATERNARY PHOSPHONIUM COMPOUNDS AS ANTIMICROBIAL AGENTS” (priority 2022, published 2026).
Entries after “also recorded” stand apart in the source; their conditions may differ.

Assays:
[1] = tested on: red blood cells; test: Red Blood Cell (RBC) Lysis Assay (lysis20); assay type: cell-based, sheep; details: concentration inducing 20% RBC lysis; sheep blood, 1 hour, 37 °C
Experimental: RBC lysis assays were performed on mechanically defibrinated sheep blood (Hemostat Labs: DSB030). An aliquot of 1.5 mL blood was placed into a microcentrifuge tube and centrifuged at 3,800 rpm for ten minutes. The supernatant was removed, and the cells were resuspended with 1 mL of phosphate-buffered saline (PBS). The suspension was centrifuged as described above, the supernatant was removed, and cells were resuspended 4 additional times in 1 mL PBS. The final cell suspension was diluted twentyfold with PBS. Compounds were serially diluted with PBS two-fold from stock solutions (1.0 mM) to yield 100 μL of twelve test concentrations on a flat-bottom 96-well plate (Corning, 351172), wherein the starting concentration of DMSO was 2.5%. To each of the wells, 100 μL of the twentyfold suspension dilution was then inoculated. TritonX (1% by volume) served as a positive control (100% lysis marker) and sterile PBS served as a negative control (0% lysis marker). Samples were then placed in an incubator at 37 °C and shaken at 200 rpm. After 1 hour, the samples were centrifuged at 3,800 rpm for ten minutes. The absorbance of the supernatant was measured with a UV spectrometer at a 540 nm wavelength. The concentration inducing 20% RBC lysis was then calculated for each compound based upon the absorbances of the TritonX and PBS controls. Aqueous DMSO controls were conducted as appropriate for each compound.
The potential cytotoxicity of the compounds was also considered with the evaluation of hemolysis (lysis20) assays with 20% lysis of red blood cells serving as an indicator of potentially toxic compounds. Finally, the bioactivity of these compounds were benchmarked against a commercial benzalkonium chloride source (BAC; 70% benzyldimethyldodecylammonium chloride, and 30% benzyldimethyltetradecylammonium chloride) as well as some previously reported disinfectant compounds from the inventors' groups; included were bisQPC ^PhP6P-10,10 as well as ^PhP2P-10,10 and 12(2)12. A detailed description of the experimental procedures used to evaluate bioactivity and hemolysis assays are described above.

[2] = Dynamic surface tension (bubble pressure tensiometer); assay type: physicochemical; details: 100, 300 and 1000 ppm in deionized water, 22 °C; 10 to 10,000 ms surface age
Experimental: All samples were analyzed using a Krüss BPT Mobile bubble pressure tensiometer. Solutions of 12(2)12 and ^MeP2P-12,12 were made in concentrations of 100, 300 and 1000 ppm using deionized water. Measurements were conducted at 22+1 °C. Before each sample run, a new capillary tip was installed and the instrument was calibrated with deionized water. The dynamic surface tension (mN/m) was measured as a function of surface bubble age (30 collection points over the range of 10 to 10,000 ms).
In order to further investigate these highly analogous bis-cationic structures, a Krüss bubble pressure tensiometer was utilized to measure the dynamic surface tension of 12(2)12 and ^MeP2P-12,12.
Antimicrobial activity is expected to be affected by differences in solution behavior of amphiphilic molecules, such as the propensity to form micelles and solution dispersion rates. Structural factors such as nature of the charge and the alkyl chain length of the amphiphile have been previously reported to change the behavior of surfactants. These types of structural factors are consistent with the factors that influence the inventors' proposed mechanism of action for bacteria membrane disruption by multicationic QACs. […]

[3] = tested on: panel of bacteria; test: MIC across the panel of bacteria (Gram-positive and Gram-negative); assay type: cell-based; details: over the bacterial panel
Experimental: The term “minimum inhibitory concentration (MIC)” means the lowest concentration of an antimicrobial agent that will inhibit the visible growth of a microorganism after overnight incubation. MIC values against bacteria, for example, the Gram-positive Staphylococcus aureus and Enterococcus faecalis and the Gram-negative Escherichia coli and Pseudomonas aeruginosa were determined by standard methods. See also P. A. Wayne, Methods for Dilution Antimicrobial Tests for Bacteria that Grow Aerobically; Approved Standard, Ninth Edition, 2012, CLSI Document M07-A9, Vol. 32 No. 2.
Biological testing procedures were adapted from prior work by Melander and coworkers. For all biological assays, laboratory strains of methicillin-susceptible Staphylococcus aureus MSSA (SH1000), Staphylococcus aureus CA-MRSA (USA300-0114), Staphylococcus aureus HA-MRSA (ATCC 33591), Escherichia coli (MC4100), Enterococcus faecalis (OG1RF), Acinetobacter baumannii (ATCC 17978), were grown with shaking at 37 °C overnight from freezer stocks in 5 mL of the indicated media: SH1000, OG1RF, MC4100, USA300-0114, and ATCC 17978 were grown in BDTM Mueller-Hinton broth (MHB), whereas ATCC 33591 was grown in BDTM tryptic soy broth (TSB). The inoculum were then streaked onto Mueller-Hinton agar (MHA) plates and grown overnight at 37 °C. From the plates, single colonies were selected, diluted into 50 mL of fresh media and grown overnight at 37 °C with shaking for use in the MIC assays. Optical density (OD) measurements were obtained using a SpectraMax iD3 plate reader (Molecular Devices, United States).
Compounds were serially diluted two-fold from stock solutions (1.0 mM) to yield twelve 100 μL test concentrations, wherein the starting concentration of dimethyl sulfoxide (DMSO) was 2.5%. Overnight S. aureus, E. faecalis, E. coli, A. baumannii, USA300-0114 (CA-MRSA), and ATCC 33591 (HA-MRSA) cultures were diluted to ca. 10^6 CFU/mL in MHB or TSB and regrown to mid-exponential phase, as determined by optical density recorded at 600 nm (OD600). All cultures were then diluted again to ca. 10^6 CFU/mL and 100 μL were inoculated into each well of a U-bottom 96-well plate (Corning, 351177) containing 100 μL of compound solution. Plates were incubated statically at 37 °C for 72 hours upon which wells were evaluated visually for bacterial growth. The MIC was determined as the lowest concentration of compound resulting in no bacterial growth visible to the naked eye, based on the highest value in three independent experiments. Aqueous DMSO controls were conducted as appropriate for each compound.
The prepared library of biscationic amphiphilic compounds was assessed for performance as antibacterial disinfectants by determining the minimum inhibitory concentration (MIC) for each against a panel of bacteria. The bacteria selected for the study were chosen to evaluate the broad spectrum antimicrobial performance of the QPCs, and therefore, included both Gram-positive and Gram-negative bacterial strains, including those with known antimicrobial resistance mechanisms. These bacteria include the Gram-positive strains of methicillin-susceptible Staphylococcus aureus [MSSA; SH1000], community-acquired methicillin-resistant Staphylococcus aureus [CA-MRSA; USA 300-0114], hospital-acquired methicillin-resistant Staphylococcus aureus [HA-MRSA; ATCC 33591] and the […], Escherichia coli [MC4100], Acinetobacter baumannii [ATCC 17498] and Pseudomonas aeruginosa [PAO1].

SMILES | Lysis20 [1] | dynamic surface tension (in words) [2] | antimicrobial activity / bioactivity (in words) [3]
CCCCCCCCCCCC[N+](C)(C)CC[N+](C)(C)CCCCCCCCCCCC [12(2)12, reference compound] | 16 µM | behave almost identically in solution | almost identical bioactivity across the bacterial panel
CCCCCCCCCCCC[P+](C)(C)CC[P+](C)(C)CCCCCCCCCCC [^MeP2P-12,12] | 8 µM | behave almost identically in solution | single-digit micromolar activity; also recorded: almost identical bioactivity across the bacterial panel
